Legend:
[1] = Acute toxicity, mouse; format: in vivo; conditions: in vivo, po, Table 6, p.o., read-out: Presumed LD50
Protocol: (§1) The acute toxicity of the compounds of the invention was examined by the following method.
(§2) Male ddy-strain 5-week old mice and male Wistar-strain 8 week old rats, five per group, were used as experimental animals. Each of the compounds was dissolved in saline and administered perorally, and the toxicity of the compound was assessed 24 hours after the administration.

[2] = tested on: mice; assay: Acute toxicity, mouse; format: in vivo; conditions: 24 hours
Protocol: as §1, §2

[3] = tested on: human neuroblastoma cell line GOTO; assay: Activity on cell line GOTO (simple method); format: cell-based; conditions: Table 2 GOTO Run No. 2; 10 μg/ml; control 8.4
Protocol: (§3) The biological activities in vitro of the compounds of formula (I) on cells of the nervous system were tested. The cells tested were human neuroblastoma cell line GOTO [see Sekiguchi, M., Oota, T., Sakakibara, K., Inui, N. & Fujii, G., Japan. J. Exp. Med., 49, 67-83 (1979)], and neuroblastoma cell line NB-1 [see Miyake, S., Shimo, Y., Kitamura, T., Nojyo, Y., Nakamura, T., Imkashuku, S. and Abe, T., The Autonomic Nervous System, 10, 115-120 (1973)], and mouse neuroblastoma cell line neuro-2a (Dainippon Pharmaceutical Co., Ltd.) which have been established as the cells of the nervous system. The above neuve cells were grown in an incubator at 37° C. in the presence of 5% carbon dioxide gas exponentially, and then cultivated for a certain period of time together with the compounds of formula (I).
A culture medium [composed of 45% of RPMI 1640 medium, 45% modified Eagle's medium (MEM) and 10% of fetal calf serum (FCS) and containing penicillin G sodium (100 units/ml) and streptomycin sulfate (100 microgram/ml)] containing neurobalstoma cell line GOTO in the logarithmic growth period was poured in an amount of 2 ml each into polystyrene dishes (35 mm; made by Corning Co.) so that the cell concentration was 2 to 6×10^4 cells per dish, and the cells were cultured for 1 to 2 days in a carbon dioxide gas incubator containing 5% of carbon dioxide gas in air at 37° C. Then, the culture fluid was removed, and 2 ml of a fresh serum-free culture fluid (consisting of 50% of RPMI medium and 50% of MEM medium and containing penicillin G sodium and streptomycin sulfate in the same amounts as above) was added. At the same time, a presterilized PBS solution (phosphate buffered saline) of each of the test compounds in various concentrations was added to each of the dishes. After culturing for 24 hours, the number of living cells was counted. Furthermore, the culture was photographed, and from the photos, the number and length of neurites per cell were measured. The numer of living cells was counted for 3 to 6 dishes by resistance to staining with erythrosine dye. The number and length of the neurites were measured with regard to 6 photos (more than 200 cells per photo).
(§4) As a simple method of evaluation, the number of cells have neurites with a length equal to, or larger than, the long diameter of the cell was divided by the total number of cells.

[4] = tested on: human neuroblastoma cell line GOTO; assay: Activity on neuroblastoma cell line GOTO (cell number, number and length of neurites); format: cell-based; conditions: for Number of cells: control 3.17
In short: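 GOTO cells were cultured 1–2 days at 37 °C, 5% CO2, then switched to serum-free RPMI/MEM (1:1) with compounds in PBS at various concentrations for 24 h. Living cells were counted by erythrosine exclusion (3–6 dishes); neurite number and length per cell were measured from photographs.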

[5] = Acute toxicity, rat; format: in vivo; conditions: in vivo, po, Table 6, p.o., read-out: Presumed LD50
Protocol: as §1, §2

[6] = tested on: rats; assay: Acute toxicity, rat; format: in vivo; conditions: 24 hours
Protocol: as §1, §2

[7] = tested on: mouse neuroblastoma cell line neuro-2a; assay: Activity on cell line neuro-2a (simple method); format: cell-based; conditions: Table 2 neuro-2a Run No. 1, control 7.9
Protocol: as §3, with “(I). […]” for “(I).”
as §4

[8] = Table 1 Run No. 3, 1 μg/ml, control 1.94 ± 0.69, all *P <0.01
[9] = Table 1 Run No. 3, 1 μg/ml, control 45.13 ± 22.71, all *P <0.01

| SMILES | LD50 at 24 h [1] [mg/kg] | Number of dead animals/number of test animals ([2]; Table 6, 300 mg/kg p.o.) | Number of dead animals/number of test animals ([2]; Table 6, 500 mg/kg p.o.) | Number of dead animals/number of test animals ([2]; Table 6, 1000 mg/kg p.o.) | Average of the proportions [3] [%] | Number of neurites/cell (mean ± S.D.) [4, 8] [neurites/cell] | Number of cells ([4]; Table 1 Run No. 3, 1 μg/ml) | Length of neurites (mean ± S.D.) [4, 9] [μm/cell] | LD50 at 24 h [5] [mg/kg] | Number of dead animals/number of test animals ([6]; Table 6, 300 mg/kg p.o.) | Number of dead animals/number of test animals ([6]; Table 6, 500 mg/kg p.o.) | Number of dead animals/number of test animals ([6]; Table 6, 1000 mg/kg p.o.) | Average of the proportions ([7]; 1 μg/ml) [%] | Average of the proportions ([7]; 10 μg/ml) [%] | other results |
| --- | --- | --- | --- | --- | --- | --- | --- | --- | --- | --- | --- | --- | --- | --- | --- |
| Cn1ccc2nc(N3CCNCC3)ncc2c1=O [Compound 706] | 550 to 1000 | 0/5 | 2/5 | 4/5 | 16.39 | 2.26 ± 0.82 | 4.12 × 10^4 /dish | 63.24 ± 28.17 | 550 to 1000 | 0/5 | 1/5 | 3/5 | 17.21 | 15.40 | Number of neurites/cell (mean ± S.D.) ([4]; Table 1 Run No. 3, 0.1 μg/ml, control 1.94 ± 0.69, *P <0.01): 2.30 ± 0.75 neurites/cell; Number of cells ([4]; Table 1 Run No. 3, 0.1 μg/ml): 3.81 × 10^4 /dish; Length of neurites (mean ± S.D.) ([4]; Table 1 Run No. 3, 0.1 μg/ml, control 45.13 ± 22.71, *P <0.01): 72.11 ± 26.58 μm/cell |
| CCn1ccc2nc(N3CCNCC3)ncc2c1=O [Compound 710] | 300 to 550 | 0/5 | 3/5 | 5/5 | 15.02 | 2.17 ± 0.79 | 3.92 × 10^4 /dish | 60.93 ± 23.66 | 550 to 1000 | 1/5 | 2/5 | 5/5 | 15.97 | 13.70 | Number of neurites/cell (mean ± S.D.) ([4]; Table 1 Run No. 1, 10 μg/ml, control 2.09 ± 0.61): 2.12 ± 0.51 neurites/cell; Number of cells (mean ± S.E.) ([4]; Table 1 Run No. 1, 10 μg/ml, control 14.34 ± 0.72): 19.18 ± 0.67 × 10^4 /dish; Length of neurites (mean ± S.D.) ([4]; Table 1 Run No. 1, 10 μg/ml, control 70.10 ± 43.03): 86.10 ± 50.70 μm/cell; Number of neurites/cell (mean ± S.D.) ([4]; Table 1 Run No. 1, 100 μg/ml, control 2.09 ± 0.61): 1.71 ± 0.59 neurites/cell; Number of cells (mean ± S.E.) ([4]; Table 1 Run No. 1, 100 μg/ml, control 14.34 ± 0.72): 11.92 ± 0.66 × 10^4 /dish; Length of neurites (mean ± S.D.) ([4]; Table 1 Run No. 1, 100 μg/ml, control 70.10 ± 43.03): 47.34 ± 35.11 μm/cell; Number of neurites/cell (mean ± S.D.) ([4]; Table 1 Run No. 2, 1 μg/ml, control 2.06 ± 0.60): 2.14 ± 0.63 neurites/cell; Number of cells (mean ± S.E.) ([4]; Table 1 Run No. 2, 1 μg/ml, control 12.30 ± 1.48): 17.44 ± 1.50 × 10^4 /dish; Length of neurites (mean ± S.D.) ([4]; Table 1 Run No. 2, 1 μg/ml, control 55.00 ± 37.26): 73.74 ± 43.49 μm/cell; Number of neurites/cell (mean ± S.D.) ([4]; Table 1 Run No. 2, 10 μg/ml, control 2.06 ± 0.60): 2.09 ± 0.62 neurites/cell; Number of cells (mean ± S.E.) ([4]; Table 1 Run No. 2, 10 μg/ml, control 12.30 ± 1.48): 15.15 ± 2.26 × 10^4 /dish; Length of neurites (mean ± S.D.) ([4]; Table 1 Run No. 2, 10 μg/ml, control 55.00 ± 37.26): 62.74 ± 35.64 μm/cell; Number of cells ([4]; Table 1 Run No. 3, 0.0 μg/ml (so in the source)): 3.66 × 10^4 /dish |

From US4959368A, “Therapeutic agent for neurological diseases” (Mitsui Petrochemical Industries Ltd., priority 1986, dated 1990)
